# Where a name gives a salt, the structure may show the parent alone.
# Tests used:
# Aspergillus fumigatus = experiment: Antimicrobial activity to pathogenic true fungi (MIC); type: cell-based; settings: Sabourauds agar medium, 25° C., 7 to 14 days
# Experimental: (§1) A true fungus shown in Table 1 was cultured in Sabourauds agar medium at 25° C. for 7 to 14 days, and the minimum inhibitory concentration (MIC value, μg/ml) was determined.
# Aspergillus niger = experiment: as above; type: cell-based; settings: Sabourauds agar medium, 25° C., 7 to 14 days
# Experimental: as §1
# Candida albicans [1] = experiment: as above; type: cell-based; settings: Sabourauds agar medium, 25° C., 7 to 14 days
# Experimental: as §1
# Microsporum gypseum = experiment: as above; type: cell-based; settings: Nannizzia gypsea; Sabourauds agar medium, 25° C., 7 to 14 days
# Experimental: as §1
# [2] = test system: Trichophyton mentagrophytes; experiment: as above; type: cell-based; settings: Sabourauds agar medium, 25° C., 7 to 14 days
# Experimental: as §1
# Trichophyton rubrum = experiment: as above; type: cell-based; settings: Sabourauds agar medium, 25° C., 7 to 14 days
# Experimental: as §1
# Trichophyton tonsurans = experiment: as above; type: cell-based; settings: Sabourauds agar medium, 25° C., 7 to 14 days
# Experimental: as §1
# Bacillus subtilis = experiment: Antimicrobial activity to pathogenic bacteria (MIC, agar plate dilution); type: cell-based; settings: Japanese Chemotherapeutic Association
# Experimental: (§2) The minimum inhibitory concentrations to pathogenic bacteria shown in Table 2 were determined by the agar plate dilution process according to the standard method of the Japanese Chemotherapeutic Association.
# Staphylococcus aureus = experiment: as above; type: cell-based; settings: Japanese Chemotherapeutic Association
# Experimental: as §2
# Streptococcus faecalis = experiment: as above; type: cell-based; settings: Enterococcus faecalis, Japanese Chemotherapeutic Association
# Experimental: as §2
# Streptococcus pyogenes = experiment: as above; type: cell-based; settings: Japanese Chemotherapeutic Association
# Experimental: as §2
# [3] = Migration in blood after oral administration; type: in vivo; settings: rat, oral 300 mg/kg; for Concentration in Blood: gum arabic suspension, compound bonded with small blood protein (fraction MW 10,000)
# Experimental: The compound obtained in Example 1 was orally administered at a dose of 300 mg/kg in the form of a suspension in gum arabic to a rat, and the change of the concentration in blood was examined by the high-speed liquid chromatography.
# Each value is the concentration of the compound bonded with a blood protein having a small molecular weight (fraction molecular weight=10,000).
# Candida albicans [4] = experiment: Curative effect to candidiasis; type: in vivo, mouse; settings: after two days; for Survival Ratio: 1.4 hours after infection, control 0/3
# Experimental: A mouse was infected with Candida albicans, and when 1.4 hours had passed from the infection, the compound obtained in Example 1 was orally administered in the form of a suspension in gum arabic. After two days, the pharmaceutical effect was examined.
# [5] = test system: Trichophyton mentagrophytes; experiment: Curative effect to trichophytosis; type: in vivo, guinea pig; settings: for Number of Colonies in Skin Pieces after 3 days' stoppage of administration: 10 days, then 3 days stopped, control 3.4 × 10^3; for Number of Colonies in Skin Pieces after 10 days' administration: control 4.1 × 10^3
# Excerpt: A guinea pig was skin-infected with Trichophyton mentagrophytes, and after two days had passed from the infection, the compound obtained in Example 1 was orally administered in the form of a suspension in gum arabic once a day for 10 days and the pharmaceutical effect was examined. Then, the administraion of the compound was stopped for 3 days and the recovery state was examined.
# [6] = Acute toxicity (oral LD50); type: in vivo; settings: mouse, in vivo, po, LD50 Value
# Excerpt: (§3) It is seen that the actue toxicity of the compound is very low.
# mouse = experiment: Acute toxicity (oral LD50); type: in vivo
# Excerpt: as §3
# skin = experiment: Primary irritation to skin; type: in vivo, rabbit
# Excerpt: It is seen that the compound is a non-irritating substance.
smiles,measurement,setting,value
"O=C(C(=Cc1ccc(Cl)cc1Cl)n1ccnc1)c1ccc(Cl)cc1 [Example 1, 1-(4-chlorophenyl)-2-(1H-imidazolyl)-3-(2,4-dichlorophenyl)-2-propen-1-onehydrochloride]",MIC,Aspergillus fumigatus,3.12 µg/mL
same,MIC,Aspergillus niger,3.12 µg/mL
same,MIC,Candida albicans [1],< 6.25 µg/mL
same,MIC,Microsporum gypseum,< 1.25 µg/mL
same,MIC,[2],< 1.25 µg/mL
same,MIC,Trichophyton rubrum,< 1.25 µg/mL
same,MIC,Trichophyton tonsurans,< 1.25 µg/mL
same,MIC,Bacillus subtilis,3.12 µg/mL
same,MIC,Staphylococcus aureus,1.56 µg/mL
same,MIC,Streptococcus faecalis,3.12 µg/mL
same,MIC,Streptococcus pyogenes,3.12 µg/mL
same,Concentration in Blood,[3]; 0 hours,0 ng/mL
same,Concentration in Blood,[3]; 2 hours,1200 ng/mL
same,Concentration in Blood,[3]; 4 hours,2970 ng/mL
same,Concentration in Blood,[3]; 6 hours,9070 ng/mL
same,Concentration in Blood,[3]; 8 hours,4260 ng/mL
same,Concentration in Blood,[3]; 12 hours,5620 ng/mL
same,Concentration in Blood,[3]; 24 hours,1500 ng/mL
same,time to maximum concentration in blood,[3]; suspension in gum arabic,within several hours
same,Survival Ratio,Candida albicans [4]; 50 mg/kg oral,1/3
same,Number of Living Cells in Kidney of Survivor Mouse,Candida albicans [4]; 50 mg/kg oral,substantially annihilated
same,Survival Ratio,Candida albicans [4]; 100 mg/kg oral,2/3
same,Number of Colonies in Skin Pieces after 3 days' stoppage of administration,[5]; 50 mg/kg oral once a day,annihilated
same,Number of Colonies in Skin Pieces after 10 days' administration,[5]; 50 mg/kg oral once a day,annihilated
same,Number of Colonies in Skin Pieces after 3 days' stoppage of administration,[5]; 100 mg/kg oral once a day,annihilated
same,Number of Colonies in Skin Pieces after 10 days' administration,[5]; 100 mg/kg oral once a day,annihilated
same,LD50,[6],2950 mg/kg
same,LD50 Value,"mouse; in vivo, po",3100 mg/kg
same,acute toxicity,"mouse; oral, in words",very low
same,primary irritation to skin,skin; in words,non-irritating
same,Primary Irritation Ratio,"skin; rabbit, coating concentration 100%",0.72
